In ChEMBL document CHEMBL4627246, “Pyroglutamide-Based P2X7 Receptor Antagonists Targeting Inflammatory Bowel Disease” (J Med Chem, 2020):

What was measured:
Type in all cases: cell-based
CCRF-CEM = test: Cytotoxicity against human CCRF-CEM cells assessed as effect on cell growth at 10 uM incubated for 48 hrs by sulforhodamine B assay
RPMI-8226 = test: Cytotoxicity against human RPMI8226 cells assessed as effect on cell growth at 10 uM incubated for 48 hrs by sulforhodamine B assay; settings: rpmi-8226, 48 h
MOLT-4 = test: Cytotoxicity against human MOLT4 cells assessed as effect on cell growth at 10 uM incubated for 48 hrs by sulforhodamine B assay; settings: molt-4, 48 h
HL-60(TB) = test: Cytotoxicity against human HL-60(TB) cells assessed as effect on cell growth at 10 uM incubated for 48 hrs by sulforhodamine B assay
HOP-92 = test: Cytotoxicity against human HOP92 cells assessed as effect on cell growth at 10 uM incubated for 48 hrs by sulforhodamine B assay; settings: hop-92, 48 h
NCI-H23 = test: Cytotoxicity against human NCI-H23 cells assessed as effect on cell growth at 10 uM incubated for 48 hrs by sulforhodamine B assay; settings: nci-h23, 48 h
NCI-H322M = test: Cytotoxicity against human NCI-H322M cells assessed as effect on cell growth at 10 uM incubated for 48 hrs by sulforhodamine B assay
HCT-15 = test: Cytotoxicity against human HCT15 cells assessed as effect on cell growth at 10 uM incubated for 48 hrs by sulforhodamine B assay; settings: hct-15, 48 h
SW-620 = test: Cytotoxicity against human SW620 cells assessed as effect on cell growth at 10 uM incubated for 48 hrs by sulforhodamine B assay; settings: sw-620, 48 h
SF-268 = test: Cytotoxicity against human SF268 cells assessed as effect on cell growth at 10 uM incubated for 48 hrs by sulforhodamine B assay; settings: sf-268, 48 h
SNB-75 = test: Cytotoxicity against human SNB75 cells assessed as effect on cell growth at 10 uM incubated for 48 hrs by sulforhodamine B assay; settings: snb-75, 48 h
U-251 = test: Cytotoxicity against human U251 cells assessed as effect on cell growth at 10 uM incubated for 48 hrs by sulforhodamine B assay; settings: u-251, 48 h
Malme-3M = test: Cytotoxicity against human MALME-3M cells assessed as effect on cell growth at 10 uM incubated for 48 hrs by sulforhodamine B assay
M14 = test: Cytotoxicity against human M14 cells assessed as effect on cell growth at 10 uM incubated for 48 hrs by sulforhodamine B assay; settings: m14, 48 h
IGROV-1 = test: Cytotoxicity against human IGROV1 cells assessed as effect on cell growth at 10 uM incubated for 48 hrs by sulforhodamine B assay; settings: igrov-1, 48 h
OVCAR-4 = test: Cytotoxicity against human OVCAR4 cells assessed as effect on cell growth at 10 uM incubated for 48 hrs by sulforhodamine B assay; settings: ovcar-4, 48 h
ACHN = test: Cytotoxicity against human ACHN cells assessed as effect on cell growth at 10 uM incubated for 48 hrs by sulforhodamine B assay
CAKI-1 = test: Growth inhibition of human Caki1 cells assessed as growth percentage at 10 uM incubated for 48 hrs by sulforhodamine B assay; settings: caki-1, 48 h
PC-3 = test: Cytotoxicity against human PC3 cells assessed as effect on cell growth at 10 uM incubated for 48 hrs by sulforhodamine B assay; settings: pc-3, 48 h
MDA-MB-231 = test: Cytotoxicity against human MDA-MB-231 cells assessed as effect on cell growth at 10 uM incubated for 48 hrs by sulforhodamine B assay; settings: mda-mb-231, 48 h

Measured: Activity

O=C(NCCc1ccc(Cl)cc1Cl)[C@@H]1CCC(=O)N1c1ccccc1
Non-Toxic: all assays above

O=C(NCc1ccccc1Cl)[C@@H]1CCC(=O)N1Cc1ccccc1Cl
Non-Toxic: all assays above

CN1C(=O)CC[C@H]1C(=O)NCc1cccc(C(F)(F)F)c1Cl [GSK1482160]
Non-Toxic: all assays above

O=C(NCc1ccccc1Cl)[C@@H]1CCC(=O)N1Cc1ccc(Cl)cc1
Non-Toxic: all assays above

O=C(NCc1ccc(Cl)cc1Cl)[C@@H]1CCC(=O)N1Cc1ccc(Cl)cc1
Non-Toxic: all assays above

CCCCCCN1C(=O)[C@@H]2CCC(=O)N2C1N(C)C (stereo not given in full)
Non-Toxic: all assays above

CN(C)/C=C1\C[C@H]2C(=O)N(Cc3ccc(Cl)cc3Cl)C(N(C)C)N2C1=O (stereo not given in full)
Non-Toxic: all assays above

CN(C)/C=C1\C[C@H]2C(=O)N(/C(=C/N(C)C)c3ccncc3)C(N(C)C)N2C1=O (stereo not given in full)
Non-Toxic: all assays above

O=C(NCc1ccc(Cl)cc1Cl)[C@@H]1CCC(=O)N1c1cccs1
Non-Toxic: all assays above
